Entries after “also recorded” stand apart in the source; their conditions may differ.
Experiments:
[1] = tested on: rat peritoneal macrophages; assay: NO generation by IgE/DNP-activated rat peritoneal macrophages; type: cell-based
Procedure: Figure 6 Inhibition of in vitro and in vivo inflammatory responses in rats by p30A peptide. (A) Rat peritoneal macrophages were activated via CD23 antigens with/without p30A, L-NIL or pCtl. Cell supernatants were collected 48 h later and nitrite levels were quantified. Values are mean±s.d. of cells from 3 different rats. (B) Cumulative clinical score/rat obtained following 50 days post-immunization in all groups. AIA rats were treated either after or before (d0) the onset of symptoms. Treatment consisted of p30A, hydrocortisone (HC, 30 mg/rat)) or pCtl (100 mg/rat). Shown are means of cumulative score/rat±s.d. from 5 (HC) or 8 rats (other conditions). (C) Evolution of arthritis severity scores of adjuvant-induced arthritis (AIA) in rats treated with intracutaneous p30A or pCtl (100 mg/rat) or hydrocortisone (after the onset of clinical signs as illustrated by arrows (means from 8 rats, s.e.m.<20%). (D) Histopathologic analysis confirm p30A ability to decrease all components of AIA lesions: pannus formation and inflammation of the synovium (P), deformity of joint and bones (asterix), bone remodeling and destruction (arrowhead), bone neoformation (arrows) and cartilage destruction.
Culture supernatants (72 h) were assayed for the stable end-product of NO, NO2 ^− using the Griess reaction modified as detailed elsewhere. […]

[2] = tested on: soluble and surface CD23; assay: Interaction of p30A with soluble and surface CD23 (inferred); type: binding, human
Procedure: Figure 1 Specific blockade of CD23 reactivity by p30A. Flow cytometry analysis showing the inhibition of (A) anti-CD23-FITC (20 µg/ml) or (B) IgE (10 µg/ml)/anti-IgE-FITC (1 µg/ml) binding to CD23^+ human PBL-derived macrophages (red lines) or following their pre-incubation with p30A peptides (10 µg/ml) (blue lines). (C) CD23 western blot was performed on total protein extract from à CD23^+ B-cell line. The detection with CD23-McAb followed the pre-incubation of the blot with or without p30A (10 µg/ml). Similar protein quantity (50 µg) was used for each western blot condition.
As control (pCtl), we have used synthetic heptapeptide with unrelated sequence (SFNYNYA).
Total cellular proteins were isolated from CD23^+, ADAM B-cell line in cell lysis buffer (10 mM Tris pH 8.0, 150 mM NaCl, 5 mM EDTA, 1% Triton X-100, 0.05% SDS, 10 mM Sodium Fluoride, 1 mM Sodium Orthovanadate, 5 µM Molibdic Acid) and a mixture of protease inhibitors (all from Sigma Aldrich, Saint Quentin Fallavier, France). Protein concentration was determined using the Bradford assay (Bio Rad, Hemel Hempstead, UK). Protein samples (50 µg total protein) were subjected to SDS-PAGE using a 12% resolving gel. […] Immunoreactive bands (CD23 and Bcl2) were detected using the FluorChem 8800 (Alpha Innotech, San Leandro, USA) and semi-quantified by densitometry using AlphaEase FC (Alpha Innotech).

[3] = tested on: iNOS mRNA in human CD23+ monocyte-derived macrophages; assay: iNOS mRNA expression (RT-PCR) in CD23-activated human macrophages; type: cell-based; details: CD23-McAb 20 µg/ml, 1 h pre-incubation with 10 µg/ml peptide, versus HPRT mRNA
Procedure: Figure 2 Inhibition of CD23-mediated activation of iNOS pathway in human macrophages by p30A. Human CD23^+ monocyte-derived macrophages were incubated with cross-linking CD23-McAb (20 µg/ml) alone or following 1 h pre-incubation with 10 µg/ml of various peptides. […] Expression of iNOS mRNA was compared to HPRT mRNA levels. (B) Inhibition of NO generation from human activated macrophages by synthetic peptides. Cell supernatants were collected 72 h following cell cultures and levels of nitrites were determined. […] Results are expressed as mean of 3 distinct donor cell preparations (SEM<20%). (C) Inducible NOS-mediated NO generation in human macrophages is decreased following pre-incubation with p30A or L-NIL prior to CD23-mediated activation. Results are expressed as mean±s.d. of 7 distinct donor cell preparations.
Monocytes or macrophages were activated through CD23 pathway: while monocytes/macrophages from RA patients express CD23, monocytes from healthy donors must be pre-activated to express surface CD23 as described. […] Cells supernatants were then analyzed for their nitric oxide content (see below) and for the presence of cytokines: levels of TNF-α and IL-6 were determined in duplicates for each sample by a specific ELISA (R&D, Paris, France) while levels of IL-1β, IL-8 and IL-10 was determined using FlowCytomix Human Th1/Th2 Kit as recommended (Bender Medsystems, Vienna, Austria). […]

In the case of FHENWPS [p30A], the “reversal of IgE/DNP activation” value ([1]; rat macrophages ex-vivo) is reported as “able to reverse the IgE/DNP activation of rat macrophages ex-vivo”, the “CD23-mediated induction of NO generation” value ([1]; rat peritoneal macrophages, IgE/DNP, peptide 1 h prior, supernatants at 48 h, 3 rats) is reported as “significant decrease in CD23-mediated induction of NO generation” and the “binding to human CD23” value [2] is reported as “specifically bound human and rat CD23”. For the same substance, the “affinity of interaction with soluble and surface CD23 relative to McAb or IgE-anti-IgE” value ([2]; authors' inference from Figure 1A-C, Kd not given) was “interacts with both soluble and surface CD23 forms with a higher affinity than specific McAb or IgE-anti-IgE immune complexes” and the “iNOS-encoding mRNA level” value [3] was “reduced the levels of inducible nitric oxide synthase (iNOS)-encoding mRNA; also recorded: decreased in cells pre-incubated with p30A”.

— publication PMC2652713, “Molecular Blocking of CD23 Supports Its Role in the Pathogenesis of Arthritis” (PLoS ONE, 2009)
